Experimental data published in article PMC9243782 (Aaps Open, 2022).
Where two headings read alike, the source gives them in different places.

Assays:
[1] = First in human single ascending dose and food effect PK study of JOTROL, plasma; details: for Tmax / AUC(0-t) / half-life / AUC(0-inf) / k el / Cmax: both, human; for AUC(0-inf): AUC0-inf; for k el: Kel
Method: A total of 24 healthy, adult male or female volunteers were included in study part 1. […] A food effect arm was also included as part 2. […] Given that the in life portion of the study was done during the pandemic, total number, gender, ethnicity, etc., of the subjects was not mandated. A total of 4 study periods were included in this study with washout of at least 14 days between doses. […] After the completion of each cohort, an evaluation of the safety data was performed prior to determining whether to proceed with enrollment for the next scheduled dose level, to modify the dose, or to discontinue the study. […] The aliquots were transferred to a - 80 °C freezer (no more than 60 min passed between the start of centrifugation and aliquot storage), pending analysis/shipment to the analytical facility. […] Samples are extracted by a protein precipitation extraction procedure, and the compounds are detected and quantified by tandem mass spectrometry in positive ion mode on an MDS Sciex API 6500+ equipped with a Turbo Ionspray® interface. […] All concentration values that were below the lower limit of quantification (BLQ) occurring prior to dosing as well as samples with no reportable value (NRV) occurring prior to dosing were replaced by “0.00”; otherwise, they (BLQ and NRV) were set to missing for tabulation, graphical representation, and calculation purposes. PK analyses were performed using Phoenix WinNonlin® version 8.2, which was validated by Syneos Health. The WinNonlin noncompartmental analysis (NCA) module was used [NT]0-t (last detectable concentration), AUC0-inf (infinity), residual area (%), Cmax, Tmax, T1/2 el (elimination half-life), and Kel (elimination rate constant). […] Power model included the PK parameter as the response variable and dose (mg) as the explanatory variable. For this model, the variable dose was treated as a continuous variable. For evaluation of the food-effect, PK data (ln-transformed AUC0-t, AUC0-inf, Cmax and untransformed Tmax) reported under fed conditions (Period 4) and under fasting conditions (for the same dose level) were compared using analysis of variance (ANOVA) from SAS®. The ratio (fed/fasting) and 90% geometric CI were also calculated for AUC0-t, AUC0-inf, and Cmax.

[2] = First in human PK study of JOTROL, urine excretion; assay type: in vivo; details: for CL renal: human, urine
Method: For day 2 (24 h post-dose) urine collection, subjects were asked to void their bladder within 15 min before the end of the collection interval (12–24 h). For other collections, subjects were asked to void their bladder within 10 min before the end of each collection interval. Urine voided at the intersection of two intervals was included in the earlier interval. Any urine voided by subjects but not collected was documented.
The volume of urine collected in each interval was measured (individual urine volumes are on file), and two aliquots of equal volume were dispensed into polypropylene tubes for each interval. Aliquots were stored in a − 80 °C freezer, pending analysis; remaining urine from each subject was discarded.

[3] = cited from earlier work
[4] = plasma, po, 200 mg, resveratrol in plasma, mean, Treatment A: JOTROL 200 mg single oral dose, fasting
[5] = plasma, po, 500 mg, resveratrol in plasma, mean, Treatment B: JOTROL 500 mg single oral dose, fasting
[6] = plasma, po, 500 mg, resveratrol in plasma, mean, Treatment D: JOTROL 500 mg single oral dose, fed (high-fat meal)
[7] = plasma, po, 700 mg, resveratrol in plasma, mean, Treatment C: JOTROL 700 mg single oral dose, fasting
[8] = 500 mg caplets, 5 g, mean ± SD, ref Boocock et al. ([2007])
[9] = 500 mg caplets, 5 g, mean ± SD, ref Brown et al. ([2010])
[10] = Friedreich's ataxia study, ref Yiu et al. ([2015])

For `Oc1ccc(/C=C/c2cc(O)cc(O)c2)cc1` [Resveratrol, 3,5,4′-stilbenotriol], the “Delay of the peak concentration by food” value ([1]; JOTROL 500 mg fed vs fasting) was “approximately 30 min”, the “Dose proportionality of AUC0-t and Cmax (power model)” value ([1]; JOTROL 200, 500, 700 mg fasting) was “higher than expected if dose proportional” and the “Gender differences in the exposure of resveratrol” value ([1]; all JOTROL doses, p = 0.011) was “mean female AUC values tend to be higher than male values”. It also gave a Tmax ([1]; in vivo, po, 500 mg) of 1 h, a Tmax ([1]; plasma, oral) of about 1 h and an AUC(0-t) ([1]; plasma, oral, Mean AUC0-t, range over doses, resveratrol in plasma, JOTROL 200 to 700 mg, fasting) of 0.149 to 0.886 µg·h/mL. It also gave a half-life ([1]; plasma, oral, T½, resveratrol in plasma after JOTROL, N low, interpret with caution) of about 2 h, a Tmax ([1]; plasma, po, 200 mg) of 0.999 h and an AUC(0-inf) [1, 4] of 0.215 µg·h/mL. It also gave an AUC(0-t) ([1]; plasma, po, 200 mg, AUC0-t, resveratrol in plasma, mean, Treatment A: JOTROL 200 mg single oral dose, fasting) of 0.149 µg·h/mL, a k el [1, 4] of 0.000153 s⁻¹ and a half-life ([1]; plasma, po, 200 mg, T1/2 el, resveratrol in plasma, mean, Treatment A: JOTROL 200 mg single oral dose, fasting) of 1.26 h. The AUC(0-inf) [1, 5] was 0.574 µg·h/mL, the AUC(0-inf) [1, 6] was 0.613 µg·h/mL and the AUC(0-t) ([1]; plasma, po, 500 mg, AUC0-t, resveratrol in plasma, mean, Treatment B: JOTROL 500 mg single oral dose, fasting) was 0.48 µg·h/mL. For the same molecule, the AUC(0-t) ([1]; plasma, po, 500 mg, AUC0-t, resveratrol in plasma, mean, Treatment D: JOTROL 500 mg single oral dose, fed (high-fat meal)) was 0.306 µg·h/mL, the Cmax ([1]; plasma, po, 500 mg, Cmax, resveratrol in plasma, mean, Treatment B: JOTROL 500 mg single oral dose, fasting) was 0.455 µg/mL and the k el [1, 5] was 9.22e-05 s⁻¹. It also gave a k el [1, 6] of 0.000152 s⁻¹, a half-life ([1]; plasma, po, 500 mg, T1/2 el, resveratrol in plasma, mean, Treatment B: JOTROL 500 mg single oral dose, fasting) of 2.74 h and a half-life ([1]; plasma, po, 500 mg, T1/2 el, resveratrol in plasma, mean, Treatment D: JOTROL 500 mg single oral dose, fed (high-fat meal)) of 1.71 h. It also gave a Tmax ([1]; plasma, po, 700 mg) of 1.02 h, an AUC(0-inf) [1, 7] of 0.611 µg·h/mL and an AUC(0-t) ([1]; plasma, po, 700 mg, AUC0-t, resveratrol in plasma, mean, Treatment C: JOTROL 700 mg single oral dose, fasting) of 0.886 µg·h/mL. It also gave a Cmax ([1]; plasma, po, 700 mg, Cmax, resveratrol in plasma, mean, Treatment C: JOTROL 700 mg single oral dose, fasting) of 0.805 µg/mL, a k el [1, 7] of 0.000126 s⁻¹ and a half-life ([1]; plasma, po, 700 mg, T1/2 el, resveratrol in plasma, mean, Treatment C: JOTROL 700 mg single oral dose, fasting) of 1.6 h. For the same molecule, the “Residual Area” value ([1]; resveratrol in plasma, mean, Treatment D: JOTROL 500 mg single oral dose, fed (high-fat meal)) was 3.7%, the CL renal ([2]; oral, resveratrol after JOTROL 200 to 700 mg, read-out: Renal clearance, range over treatments) was 2.33 to 4.17 mL/min and the CL renal ([2]; oral, resveratrol after JOTROL, conversion of 0.14 to 0.25 L/h, read-out: Renal clearance) was about 4 mL/min. For the same molecule, the CL renal ([2]; po, 200 mg, resveratrol renal clearance, mean, Treatment A: JOTROL 200 mg single oral dose, fasting, read-out: CLR (converted)) was 4.17 mL/min, the CL renal ([2]; po, 500 mg, resveratrol renal clearance, mean, Treatment B: JOTROL 500 mg single oral dose, fasting, read-out: CLR (converted)) was 2.33 mL/min and the CL renal ([2]; po, 700 mg, resveratrol renal clearance, mean, Treatment C: JOTROL 700 mg single oral dose, fasting, read-out: CLR (converted)) was 3.17 mL/min. The “Renal clearance as share of GFR” value ([2]; resveratrol after JOTROL) was 3 % of GFR, the TRmax ([2]; resveratrol in urine, mean, Treatment A: JOTROL 200 mg single oral dose, fasting) was 1.5 h and the Cmax ([3]; 25 mg (overnight fast +3 h), radiolabeled dose, ref Walle et al. ([2004])) was under 0.005 µg/mL. For the same molecule, the AUC ([3]; 500 mg caplets, 5 g, AUC to infinity, mean ± SD, ref Boocock et al. ([2007])) was 1.319 ± 0.78 µg·h/mL, the Cmax [3, 8] was 0.538 ± 0.391 µg/mL and the t1/2 [3, 8] was 8.5 ± 8.2 h. For the same molecule, the AUC [3, 9] was 4.097 ± 4.384 µg·h/mL, the Cmax [3, 9] was 0.967 ± 0.517 µg/mL and the t1/2 [3, 9] was 7.85 ± 1.97 h. For the same molecule, the Cmax ([3]; 1 g encapsulated dose, ref Turner et al., Neurology 85:1383-91, 2015) was 0.085 µg/mL, the Cmax ([3]; 2 g, 500 mg encapsulated, mean ± SD, ref Turner et al. ([2015])) was 0.085 ± 0.184 µg/mL and the t1/2 ([3]; 2 g, 500 mg encapsulated, ref Turner et al. ([2015])) was 15 h. The Cmax ([3]; 2.5 g micronized dose, ref Howells et al., Cancer Prev Res (Phila) 4:1419-1425, 2011) was 1.942 µg/mL, the “AUC exposure (estimated)” value ([3]; 3,000 mg/day of unmodified resveratrol, healthy volunteers, ref published data) was 2.1 µg·h/mL and the “Plasma Cmax associated with positive biomarker outcomes (amyloid beta, inflammation modulators)” value ([3]; Alzheimer's trial, ref Turner et al. [2015], Moussa et al. [2017], Sawda et al. [2017]) was 0.085 µg/mL. The “Nominal mean plasma Cmax not associated with any efficacy” value [3, 10] was 0.128 µg/mL and the “Nominal plasma mean Cmax associated with positive clinical outcomes” value [3, 10] was 0.261 µg/mL.

In the case of `Oc1ccc(/C=C/c2cc(O)cc(O)c2)cc1` [micronized resveratrol], the Absorption ([3]; human, in vivo, po) is given as ~ 70%.

With `O=S(=O)(O)Oc1cc(O)cc(C=Cc2ccc(O)cc2)c1` [resveratrol-3-sulfate] the “Effect of food consumption on metabolite concentrations” value ([1]; JOTROL 500 mg fed vs fasting) was “significantly decreased”, the AUC(0-t) ([1]; plasma, oral, Mean AUC0-t, range over doses, metabolite in plasma, increasing JOTROL (resveratrol) doses) was 12 to 54.5 µg·h/mL and the Cmax ([1]; plasma, oral, Mean Cmax, range over doses, metabolite in plasma, increasing JOTROL (resveratrol) doses) was 6.62 to 23.6 µg/mL.
